In ChEMBL document CHEMBL1201862, “PubChem BioAssay data set” (2004):
The source made the active and inactive calls.

Experiments:
CHO-K1 = assay: (§1) Counterscreen for antagonists of the orexin 1 receptor (OX1R; HCRTR1): Homogeneous time resolved fluorescence (HTRF)-based cell-based dose response assay to identify antagonists of the parental CHO-K1 cell line. [Related pubchem assays (depositor defined):AID434989, AID435008, AID463079, AID485270, AID492963, AID492964, AID492965, AID493232, AID504699, AID504701]; assay type: functional; settings: Cricetulus griseus
[1] = as §1, with “Fluorescence-based” for “Homogeneous time resolved fluorescence (HTRF)-based”, “cell-based high throughput” for “cell-based”, “CHO” for “CHO-K1”; assay type: functional
[2] = molecular target: T1, Orexin/Hypocretin receptor type 1 (Homo sapiens, UniProt O43613); assay: Homogeneous Time Resolved Fluorescence (HTRF)-based cell-based high throughput dose response assay for antagonists of the orexin 1 receptor (OX1R; HCRTR1). [Related pubchem assays (depositor defined):AID434989, AID435008, AID463079, AID485270, AID492963, AID492964, AID492965, AID493232, AID504717, AID504718]; assay type: functional
T1 sequence (O43613 whole entry): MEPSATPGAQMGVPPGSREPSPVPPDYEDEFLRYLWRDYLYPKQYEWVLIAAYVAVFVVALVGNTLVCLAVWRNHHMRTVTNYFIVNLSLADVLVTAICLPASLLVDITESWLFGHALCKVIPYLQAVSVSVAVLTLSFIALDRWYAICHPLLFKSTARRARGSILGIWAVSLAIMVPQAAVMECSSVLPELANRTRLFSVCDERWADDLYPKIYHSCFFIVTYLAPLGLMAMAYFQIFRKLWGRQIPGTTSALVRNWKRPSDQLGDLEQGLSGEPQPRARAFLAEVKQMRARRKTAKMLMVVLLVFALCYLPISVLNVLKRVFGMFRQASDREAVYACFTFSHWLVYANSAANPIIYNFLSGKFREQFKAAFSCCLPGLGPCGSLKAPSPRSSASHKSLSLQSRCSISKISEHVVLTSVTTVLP

[3] = molecular target: T1, Orexin/Hypocretin receptor type 1; assay: Fluorescence-based cell-based high throughput dose response assay for antagonists of the orexin 1 receptor (OX1R; HCRTR1). [Related pubchem assays (depositor defined):AID434989, AID435008, AID463079, AID485270, AID492963, AID492964, AID492965, AID493232, AID504717, AID504718]; assay type: functional
Cytochrome P450 2C9 = Cytochrome P450 2C9 (Homo sapiens, UniProt P11712)
Cytochrome P450 2C9, sequence (P11712 whole entry): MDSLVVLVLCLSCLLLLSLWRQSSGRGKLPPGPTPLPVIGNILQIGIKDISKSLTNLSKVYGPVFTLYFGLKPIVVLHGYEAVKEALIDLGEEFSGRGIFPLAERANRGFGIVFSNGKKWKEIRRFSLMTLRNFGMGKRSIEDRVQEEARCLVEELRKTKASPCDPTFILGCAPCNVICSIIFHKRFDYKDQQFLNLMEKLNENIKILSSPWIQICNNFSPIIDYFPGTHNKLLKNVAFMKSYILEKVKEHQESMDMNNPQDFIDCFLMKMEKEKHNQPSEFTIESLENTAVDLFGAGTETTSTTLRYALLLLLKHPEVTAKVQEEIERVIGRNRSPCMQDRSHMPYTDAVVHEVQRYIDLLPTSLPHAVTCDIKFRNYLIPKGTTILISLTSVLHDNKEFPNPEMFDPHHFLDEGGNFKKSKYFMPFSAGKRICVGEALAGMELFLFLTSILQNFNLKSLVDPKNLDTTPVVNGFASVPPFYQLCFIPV

Cytochrome P450 3A4 = Cytochrome P450 3A4 (Homo sapiens, UniProt P08684);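 further: CYP3A4 tested as one member of a cytochrome P450 panel screen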
Cytochrome P450 3A4, sequence (P08684 whole entry): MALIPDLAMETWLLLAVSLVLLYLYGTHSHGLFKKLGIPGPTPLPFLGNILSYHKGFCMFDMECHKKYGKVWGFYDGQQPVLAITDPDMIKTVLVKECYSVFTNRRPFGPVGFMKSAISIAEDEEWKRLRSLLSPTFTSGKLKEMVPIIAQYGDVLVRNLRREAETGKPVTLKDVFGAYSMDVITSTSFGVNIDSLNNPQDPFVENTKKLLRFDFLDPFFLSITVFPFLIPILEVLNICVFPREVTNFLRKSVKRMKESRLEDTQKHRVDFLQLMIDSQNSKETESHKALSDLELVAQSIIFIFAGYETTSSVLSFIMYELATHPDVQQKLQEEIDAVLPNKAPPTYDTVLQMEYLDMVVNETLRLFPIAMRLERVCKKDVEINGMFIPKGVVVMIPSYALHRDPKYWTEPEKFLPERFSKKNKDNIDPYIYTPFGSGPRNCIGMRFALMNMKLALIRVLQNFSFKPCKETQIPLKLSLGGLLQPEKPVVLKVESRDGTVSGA

[4] = molecular target: T2, Tyrosine-protein phosphatase non-receptor type 7 (Homo sapiens, UniProt P35236); assay type: functional
T2 sequence (P35236 whole entry): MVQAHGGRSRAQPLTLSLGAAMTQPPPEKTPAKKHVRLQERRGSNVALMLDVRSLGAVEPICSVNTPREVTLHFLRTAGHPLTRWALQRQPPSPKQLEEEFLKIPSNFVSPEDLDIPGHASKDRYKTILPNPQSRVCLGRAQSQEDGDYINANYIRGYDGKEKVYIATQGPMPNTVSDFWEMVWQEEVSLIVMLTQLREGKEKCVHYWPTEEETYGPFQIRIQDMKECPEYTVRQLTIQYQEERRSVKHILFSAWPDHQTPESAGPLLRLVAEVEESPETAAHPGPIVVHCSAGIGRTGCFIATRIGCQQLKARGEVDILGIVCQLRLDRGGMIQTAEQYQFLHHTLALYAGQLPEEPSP

[5] = molecular target: T3, Tyrosine-protein phosphatase non-receptor type 22 (Homo sapiens, UniProt Q9Y2R2); assay type: functional
T3 sequence (Q9Y2R2 whole entry): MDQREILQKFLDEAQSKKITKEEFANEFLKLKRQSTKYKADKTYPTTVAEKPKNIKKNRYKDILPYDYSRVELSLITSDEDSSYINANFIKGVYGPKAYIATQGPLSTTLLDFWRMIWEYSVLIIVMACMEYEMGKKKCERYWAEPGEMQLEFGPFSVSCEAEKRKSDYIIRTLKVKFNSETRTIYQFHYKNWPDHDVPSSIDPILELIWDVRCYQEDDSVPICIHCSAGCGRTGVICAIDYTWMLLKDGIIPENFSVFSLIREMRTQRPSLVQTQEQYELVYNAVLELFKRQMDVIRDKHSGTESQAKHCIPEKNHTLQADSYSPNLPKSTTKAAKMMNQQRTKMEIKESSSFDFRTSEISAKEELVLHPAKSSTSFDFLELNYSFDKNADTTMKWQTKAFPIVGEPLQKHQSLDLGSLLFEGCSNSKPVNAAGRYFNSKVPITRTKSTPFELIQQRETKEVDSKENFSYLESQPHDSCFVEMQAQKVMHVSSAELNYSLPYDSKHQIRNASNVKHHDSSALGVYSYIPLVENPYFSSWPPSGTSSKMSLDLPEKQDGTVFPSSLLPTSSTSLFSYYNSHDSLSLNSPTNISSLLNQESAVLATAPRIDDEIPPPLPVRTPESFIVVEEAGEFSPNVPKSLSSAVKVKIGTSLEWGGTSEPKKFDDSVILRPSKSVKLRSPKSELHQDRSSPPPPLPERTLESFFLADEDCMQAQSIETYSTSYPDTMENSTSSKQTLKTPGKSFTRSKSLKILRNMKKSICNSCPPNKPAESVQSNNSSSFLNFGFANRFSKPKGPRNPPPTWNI

[6] = molecular target: T3, Tyrosine-protein phosphatase non-receptor type 22; assay type: functional; remark: listed apart in the source
Bcl-2-related protein A1 = molecular target: T4, Bcl-2-related protein A1 (Mus musculus, UniProt Q07440); assay type: functional;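 further: confirmatory dose–response counterscreen on Bfl-1, used to check hits from a UBC13 polyubiquitin inhibitor campaign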
T4 sequence (Q07440 whole entry): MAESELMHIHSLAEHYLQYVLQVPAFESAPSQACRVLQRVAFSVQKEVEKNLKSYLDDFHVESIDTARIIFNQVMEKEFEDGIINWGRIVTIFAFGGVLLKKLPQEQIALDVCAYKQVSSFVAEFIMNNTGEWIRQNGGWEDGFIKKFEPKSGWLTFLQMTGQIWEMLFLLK

[7] = molecular target: T5, Ubiquitin-conjugating enzyme E2 N (Homo sapiens, UniProt P61088); assay type: functional
T5 sequence (P61088 whole entry): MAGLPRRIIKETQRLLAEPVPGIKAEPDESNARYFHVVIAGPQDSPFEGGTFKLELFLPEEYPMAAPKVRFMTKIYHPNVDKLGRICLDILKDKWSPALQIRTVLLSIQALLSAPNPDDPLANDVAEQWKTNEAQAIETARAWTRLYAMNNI

[8] = molecular target: T5, Ubiquitin-conjugating enzyme E2 N; assay type: functional; remark: listed apart in the source
[9] = molecular target: T6, High affinity choline transporter 1 (Homo sapiens, UniProt Q9GZV3); assay: CHT inhibitors, dose response, cell-based, 5-point CRC, membrane potential dye (AID 504840); assay type: functional
T6 sequence (Q9GZV3 whole entry): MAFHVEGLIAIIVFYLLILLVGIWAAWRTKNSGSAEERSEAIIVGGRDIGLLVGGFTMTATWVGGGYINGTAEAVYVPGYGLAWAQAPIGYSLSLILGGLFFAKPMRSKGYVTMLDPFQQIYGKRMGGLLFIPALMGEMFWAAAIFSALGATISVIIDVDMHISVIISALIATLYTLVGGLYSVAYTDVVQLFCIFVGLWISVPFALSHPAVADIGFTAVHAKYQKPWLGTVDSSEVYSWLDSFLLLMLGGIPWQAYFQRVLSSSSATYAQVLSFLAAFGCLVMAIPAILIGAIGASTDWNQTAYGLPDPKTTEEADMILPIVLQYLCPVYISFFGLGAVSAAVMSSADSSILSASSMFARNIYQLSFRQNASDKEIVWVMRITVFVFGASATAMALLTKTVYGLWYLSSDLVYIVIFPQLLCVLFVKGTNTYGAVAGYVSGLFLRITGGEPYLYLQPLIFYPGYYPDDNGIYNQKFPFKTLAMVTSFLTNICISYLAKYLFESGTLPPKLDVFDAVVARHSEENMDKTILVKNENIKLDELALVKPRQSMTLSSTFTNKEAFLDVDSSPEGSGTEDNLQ

Cytochrome P450 2D6 = Cytochrome P450 2D6 (Homo sapiens, UniProt P10635);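 further: CYP2D6 member of a cytochrome P450 panel assay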
Cytochrome P450 2D6, sequence (P10635 whole entry): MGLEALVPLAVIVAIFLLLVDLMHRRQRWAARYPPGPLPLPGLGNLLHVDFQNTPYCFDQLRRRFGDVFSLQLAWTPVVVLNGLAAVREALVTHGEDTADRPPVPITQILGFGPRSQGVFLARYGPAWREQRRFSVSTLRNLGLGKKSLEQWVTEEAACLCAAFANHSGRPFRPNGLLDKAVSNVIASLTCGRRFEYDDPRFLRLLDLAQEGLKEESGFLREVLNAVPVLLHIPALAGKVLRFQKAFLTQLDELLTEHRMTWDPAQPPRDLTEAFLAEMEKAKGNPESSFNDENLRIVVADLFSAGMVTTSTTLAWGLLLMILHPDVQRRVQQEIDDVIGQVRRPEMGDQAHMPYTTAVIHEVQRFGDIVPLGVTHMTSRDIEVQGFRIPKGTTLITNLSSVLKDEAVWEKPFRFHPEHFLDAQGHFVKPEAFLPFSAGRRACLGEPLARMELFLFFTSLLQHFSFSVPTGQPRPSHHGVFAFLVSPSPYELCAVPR

Jurkat = assay: antigen receptor-induced NF-kB inhibitors, dose response, Jurkat, luciferase reporter, luminescence, B- and T-cell (AID 489004); assay type: functional, cell-based; settings: Homo sapiens;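 further: NF-kB luciferase reporter Jurkat cells stimulated with PMA plus ionomycin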
[10] = cytotoxicity in HEK-293T NF-kB-Luc cells, dose response, cytotoxicity control for B/T-cell NF-kB inhibitor project, cell-based, uHTS hits (AID 489019); assay type: functional;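 further: IC50 reflects cytotoxicity as loss of cell viability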
Beta-lactamase [11] = molecular target: Beta-lactamase (Salmonella choleraesuis (strain SC-B67), UniProt Q5J463); assay: Epi-absorbance-based counterscreen for selective VIM-2 inhibitors: dose response biochemical high throughput screening assay to identify inhibitors of TEM-1 serine-beta-lactamase.
Beta-lactamase (Salmonella choleraesuis (strain SC-B67), UniProt Q5J463), sequence (Q5J463 whole entry): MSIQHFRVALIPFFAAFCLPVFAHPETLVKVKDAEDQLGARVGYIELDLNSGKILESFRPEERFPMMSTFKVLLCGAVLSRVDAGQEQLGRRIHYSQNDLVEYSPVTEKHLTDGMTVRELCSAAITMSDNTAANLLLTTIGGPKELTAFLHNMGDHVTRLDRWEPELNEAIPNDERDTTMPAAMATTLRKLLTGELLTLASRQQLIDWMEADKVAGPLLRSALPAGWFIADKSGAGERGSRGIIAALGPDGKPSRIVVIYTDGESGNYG

Beta-lactamase [12] = molecular target: T7, Beta-lactamase (Pseudomonas aeruginosa, UniProt Q79MP6); assay: IMP-1 metallo-beta-lactamase inhibitors, dose response, selectivity assay for VIM-2 inhibitor project, biochemical, epi-absorbance (AID 1920)
T7 sequence (Q79MP6 whole entry): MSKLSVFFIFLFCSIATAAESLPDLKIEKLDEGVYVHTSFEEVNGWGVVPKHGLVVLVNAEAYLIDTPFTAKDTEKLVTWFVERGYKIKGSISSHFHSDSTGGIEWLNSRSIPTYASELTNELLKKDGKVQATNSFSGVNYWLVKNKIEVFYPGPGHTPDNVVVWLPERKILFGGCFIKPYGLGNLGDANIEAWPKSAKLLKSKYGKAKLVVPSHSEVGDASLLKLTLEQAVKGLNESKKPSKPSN

Beta-lactamase [13] = molecular target: T7, Beta-lactamase; assay: […] counterscreen for selective VIM-2 inhibitors: dose response biochemical high throughput screening assay to identify inhibitors of IMP-1 metallo-beta-lactamase.
Cytochrome P450 1A2 = molecular target: T8, Cytochrome P450 1A2 (Homo sapiens, UniProt P05177);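 further: PubChem cytochrome P450 panel assay, CYP1A2 panel member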
T8 sequence (P05177 whole entry): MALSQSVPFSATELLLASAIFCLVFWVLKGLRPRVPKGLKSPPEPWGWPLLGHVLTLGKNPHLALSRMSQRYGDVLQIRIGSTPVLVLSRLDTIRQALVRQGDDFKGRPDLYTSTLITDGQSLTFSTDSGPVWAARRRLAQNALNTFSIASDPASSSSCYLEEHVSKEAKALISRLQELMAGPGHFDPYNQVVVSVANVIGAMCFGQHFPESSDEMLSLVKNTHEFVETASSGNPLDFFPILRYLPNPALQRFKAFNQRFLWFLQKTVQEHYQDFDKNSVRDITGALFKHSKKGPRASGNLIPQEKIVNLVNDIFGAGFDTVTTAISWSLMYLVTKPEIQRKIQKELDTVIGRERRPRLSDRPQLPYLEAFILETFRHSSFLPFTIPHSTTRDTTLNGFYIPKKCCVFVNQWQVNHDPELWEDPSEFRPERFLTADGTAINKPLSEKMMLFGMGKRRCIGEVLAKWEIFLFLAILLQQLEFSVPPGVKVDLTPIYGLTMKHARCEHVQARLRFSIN

**Q.** Which IC50 (CHO-K1) does the source give for `Oc1ccccc1-c1nc(NCC2CCCO2)c2ccccc2n1` (centres undefined) here?
**A.** Its IC50 is > 66.2 µM (inactive).

**Q.** What about the IC50 [1] of the same compound?
**A.** Its IC50 is 45.8 µM (inactive).

**Q.** And the IC50 [2]?
**A.** The IC50 was 3.73 µM (active).

**Q.** What about the IC50 [3] of the same compound?
**A.** Its IC50 is 8.66 µM (active).

**Q.** Which AC50 (Cytochrome P450 2C9) does the source give for `COC(=O)COc1ccc(/C=C2/SC(=O)N(CC(=O)N3CCCC3)C2=O)cc1Br` here?
**A.** The AC50 was 10 µM (inconclusive).

**Q.** What about the AC50 (Cytochrome P450 3A4) of the same compound?
**A.** The AC50 was “inconclusive”.

**Q.** For `CC1Cc2ccccc2N1CC(=O)Nc1cccc(S(N)(=O)=O)c1` (centres undefined), which IC50 [4] is on record?
**A.** Its IC50 is > 79.4 µM (inactive).

**Q.** And the IC50 [5]?
**A.** The IC50 was > 79.4 µM (inactive).

**Q.** And the IC50 [6]?
**A.** The IC50 was > 79.4 µM (inactive).

**Q.** For `Cc1c(NC(=O)CCCN2C(=O)c3cccc4cccc(c34)C2=O)c(=O)n(-c2ccccc2)n1C`, which IC50 (Bcl-2-related protein A1) is on record?
**A.** Its IC50 is > 20 µM (inactive).

**Q.** And the IC50 [7]?
**A.** Its IC50 is 18.5 µM (active).

**Q.** What about the IC50 [8] of the same compound?
**A.** Its IC50 is 8.02 µM (active).

**Q.** With `COc1ccc(Cc2nnc(NC(=O)c3ccccc3F)s2)cc1OC` as the compound, how does the IC50 [4] read?
**A.** The IC50 was > 79.4 µM (inactive).

**Q.** What about the IC50 [5] of the same compound?
**A.** The IC50 was > 79.4 µM (inactive).

**Q.** What about the IC50 [6] of the same compound?
**A.** The IC50 was > 79.4 µM (inactive).

**Q.** For `Cc1ccnc(SCc2cc(=O)c(OC(=O)c3ccco3)co2)n1`, which IC50 [9] is on record?
**A.** The IC50 was 15.8 µM (active).

**Q.** With `O=C(Cn1cnc2ccccc2c1=O)NCCC(=O)Nc1ccc2c(c1)OCCO2` as the compound, how does the AC50 (Cytochrome P450 2D6) read?
**A.** The AC50 was “inconclusive”.

**Q.** And the AC50 (Cytochrome P450 3A4)?
**A.** Its AC50 is “inconclusive”.

**Q.** With `CCCCCn1c(=O)[nH]c2cc(C(=O)NCCCN3CCCCC3C)ccc2c1=O` (centres undefined) as the compound, how does the IC50 [9] read?
**A.** The IC50 was 14.5 µM (active).

**Q.** Which results are given for `CCc1ccc(-c2nc(C[S+]([O-])CC(=O)NCc3ccco3)c(C)o2)cc1` (centres undefined)?
**A.** IC50 (Jurkat): 44.1 µM (inactive); IC50 [10]: > 80 µM (inactive)

**Q.** What does the source list for `CCCC(=O)Nc1nnc(SCC(=O)NCc2cccs2)s1`?
**A.** IC50 (Beta-lactamase [11]): > 59.6 µM (inactive); IC50 (Beta-lactamase [12]): > 59.6 µM (inactive); IC50 (Beta-lactamase [13]): > 59.6 µM (inactive); AC50 (Cytochrome P450 1A2): 10 µM (inconclusive); AC50 (Cytochrome P450 3A4): inconclusive

**Q.** With `CCN(CC(=O)NCc1cccs1)C(=O)c1cccc(S(=O)(=O)Nc2ccccc2OC)c1` as the compound, how does the IC50 (Bcl-2-related protein A1) read?
**A.** Its IC50 is > 20 µM (inactive).

**Q.** What about the IC50 [7] of the same compound?
**A.** The IC50 was 17.1 µM (active).

**Q.** What about the IC50 [8] of the same compound?
**A.** The IC50 was 11.3 µM (active).
